Laboratory results: US8097585B2, “Methods of treating inflammation by administration of heme oxygenase-1 and products of heme degradation” (priority 2002, dated 2012)
Where a name gives a salt, the structure may show the parent alone.

Tests used:
[1] = test system: DSS-colitis; experiment: DSS-colitis (acute colitis) mouse model: weight loss, DAI, symptoms, crypt score; type: in vivo, C57BL/6 mice; settings: for mean time to development of loose stool / mean time to bleeding: Kaplan-Meier; for mean time to development of loose stool: non-treated 3 days; for mean time to bleeding: non-treated 5.1 days; for colon histology (cryptal structure): day 7, light microscopy; for crypt score: day 7, non-treatment group 4.8; for disease activity index (DAI): i.p. daily (CoPPIX 5 mg/kg; biliverdin 50 μmol/kg)
Text: Animals. Pathogen-free male C57BL/6 mice, 4-6 weeks of age (Taconic; C57BL/6×129 svj strain) were used in this example. Mice were kept for one week at 4 mice/cage and fed normal laboratory chow and drinking water ad libitum prior to the experiments. All mice weighed between 22.5 g and 27.7 g at the beginning of the trial. The animal experimentation protocol was reviewed and approved by the Animal Care and Use Committees of the Beth Israel Deaconess Medical Center.
Induction of Colitis. Colitis was induced by feeding mice 5% (wt/v) dextran sodium sulfate (DSS) (MW 40,000; ICN Biomedicals Inc., OH), dissolved in distilled water, for a period of 7 days. The resulting condition was termed “DSS-colitis.” Control animals were fed distilled water ad libitum. The mortality rate in the control group and the CO-treated group was 10% (2/20) and 14% (2/14), respectively. These animals were excluded from the statistical analysis. In the other groups, no mortality occurred during 7 days of 5% DSS treatment.
Experimental Reagents and Treatment Protocol. Cobalt protoporphyrin (CoPPIX), zinc protoporphyrin (ZnPPIX, Porphyrin Products, Logan, Utah) and biliverdin dihydrochloride (ICN Biomedicals Inc., OH) were dissolved in a small amount 0.2 M NaOH, subsequently adjusted to a pH of 7.4 with 1 M HCl, and diluted in 0.9% NaCl. The stock solutions (CoPPIX and ZnPPIX=1 mg/ml, biliverdin=10 mM) were aliquoted and kept at −70° C. until used. Light exposure was limited as much as possible. CoPPIX (5 mg/kg), ZnPPIX (20 mg/kg) and biliverdin (50 μmol/kg) were administered to the mice intraperitoneally (i.p.) 24 hours before induction of DSS-colitis and daily thereafter. Desferoxamine (DFO) was prepared in imidazole buffer (50 mM imidazole, 220 mM NaCl, pH 7.4). DFO was injected subcutaneously (s.c.) twice daily (125 mg/kg) or infused i.p. (130 mg/kg/day; pumping rate 0.5 μl/hour for 8 days) by miniosmotic Alzet™ pumps (Alza Corporation, Palo Alto, Calif.) (Postma et al., Exp. Parasitol. 89(3):323-30 1998). The pumps were installed i.p. 24 hours before induction of colitis. When animals were sacrificed at day 7 of DSS treatment, the pumps were removed and evaluated to determine if DFO application had taken place.
CO gas was administrated exogenously by putting animals in a CO exposure chamber (Otterbein et al., Nat. Med. 6(4):422-8, 2000). Briefly, CO at a concentration of 1% (10,000 parts per million (ppm)) in compressed air was mixed with balanced air (21% oxygen) in a stainless steel mixing cylinder before entering the exposure chamber. CO concentrations were controlled by varying the flow rates of CO in a mixing cylinder before delivery to the chamber. Because the flow rate is primarily determined by the O2 flow, only the CO flow was changed to deliver the final concentration to the exposure chamber. A CO analyzer (Interscan Corporation, Chatsworth, Calif.) was used to measure CO levels continuously in the chamber. Mice were placed in the chamber 24 hours before the induction of the colitis and were kept in the exposure chamber during the whole period of the experiment (total of 8 days). […] Animals were removed daily from the chamber to assess weight and stool.
Evaluation of Symptoms of Colitis. All animals were evaluated clinically on a daily basis. The evaluation of each animal included a measurement of weight, hemoccult positivity and examination of stool for the presence of gross blood and stool consistency. The disease activity index (DAI) was calculated by scoring percent weight loss, intestinal bleeding (no blood; occult blood=hemoccult+; gross blood) and stool consistency (normal stool=well-formed pellets; loose stool=pasty and semiformed stools; diarrhea=liquid stool that stuck to the anus) (Table 1).
The animals were sacrificed, and the whole colon from the colo-cecal junction to the anal verge was removed and gently cleaned of stool. […]

[2] = test system: DBA/2 islets in diabetic B6AF1 recipients; experiment: Allogeneic islet transplantation, graft survival and tolerance test; type: in vivo, mice
Description: Animals. Male DBA/2, B6AF1 and DBA/1 mice 6-8 week of age (Jackson) are used in the experiments. Mice were kept for 2 weeks at 4 mice/cage and fed normal laboratory chow before using for the experiment.
Treatment protocol. Recipients were rendered diabetic using streptozotocin (STZ, 225 mg/kg). Five days after STZ administration, animals with two consecutive blood glucose levels exceeding 350 mg/dl are used as recipients. Islets (500) are transplanted under the kidney capsule of the recipients.
Reagents. Cobalt protoporphyrin (CoPPIX, Porphyrin Products, Logan, Utah), biliverdin dihydrochloride and bilirubin (ICN Biomedicals Inc., OH) were dissolved in a small amount of 0.2 M NaOH, subsequently adjusted to a pH of 7.4 with 1 M HCl, and diluted in 1×PBS. The stock solutions (CoPPIX=2 mg/ml, biliverdin=3.2 mg/ml, bilirubin=0.5 mg/ml) were aliquoted and kept at −70° C. until used. Light exposure was limited as much as possible.
Induction of HO-1/Administration of biliverdin/bilirubin. When given to the donor, CoPPIX (20 mg/kg) was given 24 hours before islet isolation to induce HO-1 expression. To verify HO-1 expression in different organs after CoPP treatment, tissue samples are collected 24 hours after treatment and snap frozen in liquid nitrogen. Immunohistological analysis of HO-1 expression is performed using an anti-HO-1 antibody. CoPPIX (20 mg/kg) was administrated to the recipient intraperitoneally (i.p.) on day-1, 1, 3, 5 and 7. Biliverdin (50 μmol/kg) or bilirubin (8.5 μmol/kg) was given intraperitoneally to the donor one hour before islet isolation. For the recipient, biliverdin (50 μmol/kg) or bilirubin ([…]) was administered intraperitoneally either daily or twice per day from day-1 until day 13. No further treatment was given afterwards.
Measurement of Glucose level. Glucose levels were tested twice weekly after transplantation. Glucose levels of <200 mg/dl were considered normoglycemic. Grafts were considered rejected when two consecutive glucose levels were >300 mg/dl.
Tolerance test. The first graft was removed from a number of animals that had islets surviving long-term (longer than 100 days) by doing a nephrectomy. Islets syngeneic with the original donor were transplanted under the contralateral kidney capsule without further treatment. If those second transplanted islets also survived longer than 100 days without further treatment, the recipients were considered tolerant.

Row | SMILES | mean time to development of loose stool [1] [days] | mean time to bleeding [1] [days] | difference in DAI between CoPP-treated and untreated groups ([1]; day 2) | difference in DAI between CoPP-treated and untreated groups ([1]; day 5 (maximum protection)) | colon histology (cryptal structure) [1] | crypt score [1] | disease activity index (DAI) ([1]; day 7 of DSS) | difference in DAI between CoPP-treated and untreated groups ([1]; toward the end of the 7 days) | islet allograft survival ([2]; CoPP 20 mg/kg, donor one day before, recipient days −1, 1, 3, 5 and 7) | islet allograft survival ([2]; CoPP, HO-1 induced only in the donor) | acceptance of 2nd graft (DBA/2 islets) in tolerance test ([2]; all five animals, no further treatment) [days] | third party grafts in tolerance test ([2]; n=3) | mean total percent body weight loss ([1]; day 7 of DSS, i.p. daily from 24 hours before DSS (CoPPIX 5 mg/kg; biliverdin 50 μmol/kg)) [%] | antigen specific tolerance ([2]; long-term survival animals) | long-term surviving islets ([2]; treatment of the recipient only)
1 | C=CC1=C(C)c2cc3[n-]c(cc4nc(cc5[n-]c(cc1n2)c(C)c5CCC(=O)[O-])C(CCC(=O)[O-])=C4C)c(C)c3C=C.[Co+2].[H+].[H+] [CoPP, Cobalt protoporphyrin] | 4.6 | 6.9 | 0.4 | 1.64 | remaining cryptal structures and intact epithelial surface | 2.6 | 2.8 | 1.04 | prolongation of survival in general but also to some islets surviving long-term | prolonged survival and function of the islets in the recipient but also to an occasional long-term surviving graft | > 100 | rejected rapidly |  |  | 
2 | C=CC1=C(C)/C(=C/C2=NC(=C\c3[nH]c(/C=C4\NC(=O)C(C)=C4C=C)c(C)c3CCC(=O)O)/C(CCC(=O)O)=C2C)NC1=O [biliverdin, biliverdin dihydrochloride] | 4.4 | 6.2 |  |  | preserved cryptal structure | 3 | 3.3 |  |  |  |  |  | 16.5 | seen in some | significant percentage of long-term surviving islets
